Where two headings read alike, the source gives them in different places.
Tests used:
[1] = cited from earlier work
neuraminidase = conditions: more potent; cited from earlier work
Caco-2 cell monolayers = assay: Unidirectional (A-to-B) permeability of zanamivir across Caco-2 cell monolayers with and without excipients; format: in vitro ADME; conditions: initial screening, glycerol and Capmul MCM L8, results not shown
Description: Caco-2 cells were obtained from American Type Culture Collection (Rockville, MD). Stock cultures were maintained in flasks with DMEM medium supplemented with 10% FBS, 1% non-essential amino acids, 1 mmol/L sodium pyruvate, 100 IU/mL penicillin, and 100 µg/mL streptomycin in a humidified incubator (37°C, 5% CO2). Cells were harvested by trypsinization and seeded at 60,000 cells/cm^2 onto Costar Transwell® 12-well dual-chamber plates with collagen-coated, microporous polycarbonate membranes (1.13 cm^2 insert area, 0.4 µm pore size; Corning Life Sciences, Acton, MA) for permeability studies. The culture medium was changed three times per week.
Caco-2 cell monolayers that had grown for at least 20 days were subjected to batch quality control testing in which permeation rates were measured for atenolol, digoxin, estrone-3-sulfate, lucifer yellow (LY), and propranolol. In addition, the transepithelial electrical resistance (TEER) across each experimental monolayer was tested prior to an experiment.
Unidirectional (A-to-B) permeability of zanamivir was determined at 15 µg/mL in the absence and presence of varying concentrations of excipients in Caco-2 cell monolayers. The assay buffer was Hanks' balanced salt solution (HBSS) supplemented with 10 mM 4-(2-hydroxyethyl)-1-piperazineethanesulfonic acid (HEPES) and 15 mM D-glucose (HBSSg), pH 7.4. The dosing solutions on the apical side (0.5 mL) contained either zanamivir and excipients at each concentration being tested or zanamivir only (n = 4), while the receiver buffer in the bottom well (1.5 mL) was always excipient-free. The Caco-2 cell monolayers were incubated for 120 min in a humidified incubator (37°C, 5% CO2) after dosing in the apical chambers. Aliquots (200 µL each) of receiver buffer were sampled at 60 min, 90 min, and 120 min after dosing, with replacement by the same volume of blank buffer (at 60 min and 90 min). Donors were sampled at 0 and 120 min.
Experimental samples were identically treated.

Row | Compound | Oral bioavailability ([1]; in vivo, po) | Oral bioavailability [1] | Absolute bioavailability ([1]; in vivo) | further results
1 | CCOC(=O)C1=CC(OC(CC)CC)C(NC(C)=O)C(NC(=N)N)C1 (stereo not shown) [GL4116 ethyl ester] | under 5% |  |  | 
2 | CCC(CC)OC1C=C(C(=O)O)CC(NC(=N)N)C1NC(C)=O (stereo not shown) [GS4116 carboxylate] | under 5% |  |  | Inhibitor potency relative to oseltamivir carboxylate (neuraminidase): 10 fold
3 | CO[C@@H]([C@@H]1OC(C(=O)O)=C[C@H](NC(=N)N)[C@H]1NC(C)=O)[C@H](O)CO [laninamivir] |  | under 2% |  | 
4 | CCC(CC)O[C@@H]1C=C(C(=O)O)C[C@H](N)[C@H]1NC(C)=O [oseltamivir carboxylate] | 2% |  | under 5% | 
5 | CCOC(=O)C1=C[C@@H](OC(CC)CC)[C@H](NC(C)=O)[C@@H](N)C1 [oseltamivir] | at least 35% |  | ≥ 35% | 
6 | CCC(CC)[C@H](NC(C)=O)[C@@H]1[C@H](O)[C@@H](C(=O)O)C[C@H]1N=C(N)N [peramivir] |  | under 2% |  | Drug transport across Caco-2 cell monolayers with enhancers (Caco-2 cell monolayers): substantially increased drug transport

From PMC3629230, “Permeability Enhancers Dramatically Increase Zanamivir Absolute Bioavailability in Rats: Implications for an Orally Bioavailable Influenza Treatment” (PLoS ONE, 2013)
